Measured values: article PMC8194939, “Investigation on the characteristics and mechanisms of ACE inhibitory peptides by a thorough analysis of all 8000 tripeptides via binding free energy calculation” (Food Science & Nutrition, 2021)
Where a SMILES comes first, the peptide text is derived from it.

molecular target: T1, ACE from rabbit lung (Oryctolagus cuniculus, UniProt P12822); test: Assay of ACE inhibitory activity (HHL substrate, RP-HPLC of hippuric acid)
T1 sequence (P12822 34-1310): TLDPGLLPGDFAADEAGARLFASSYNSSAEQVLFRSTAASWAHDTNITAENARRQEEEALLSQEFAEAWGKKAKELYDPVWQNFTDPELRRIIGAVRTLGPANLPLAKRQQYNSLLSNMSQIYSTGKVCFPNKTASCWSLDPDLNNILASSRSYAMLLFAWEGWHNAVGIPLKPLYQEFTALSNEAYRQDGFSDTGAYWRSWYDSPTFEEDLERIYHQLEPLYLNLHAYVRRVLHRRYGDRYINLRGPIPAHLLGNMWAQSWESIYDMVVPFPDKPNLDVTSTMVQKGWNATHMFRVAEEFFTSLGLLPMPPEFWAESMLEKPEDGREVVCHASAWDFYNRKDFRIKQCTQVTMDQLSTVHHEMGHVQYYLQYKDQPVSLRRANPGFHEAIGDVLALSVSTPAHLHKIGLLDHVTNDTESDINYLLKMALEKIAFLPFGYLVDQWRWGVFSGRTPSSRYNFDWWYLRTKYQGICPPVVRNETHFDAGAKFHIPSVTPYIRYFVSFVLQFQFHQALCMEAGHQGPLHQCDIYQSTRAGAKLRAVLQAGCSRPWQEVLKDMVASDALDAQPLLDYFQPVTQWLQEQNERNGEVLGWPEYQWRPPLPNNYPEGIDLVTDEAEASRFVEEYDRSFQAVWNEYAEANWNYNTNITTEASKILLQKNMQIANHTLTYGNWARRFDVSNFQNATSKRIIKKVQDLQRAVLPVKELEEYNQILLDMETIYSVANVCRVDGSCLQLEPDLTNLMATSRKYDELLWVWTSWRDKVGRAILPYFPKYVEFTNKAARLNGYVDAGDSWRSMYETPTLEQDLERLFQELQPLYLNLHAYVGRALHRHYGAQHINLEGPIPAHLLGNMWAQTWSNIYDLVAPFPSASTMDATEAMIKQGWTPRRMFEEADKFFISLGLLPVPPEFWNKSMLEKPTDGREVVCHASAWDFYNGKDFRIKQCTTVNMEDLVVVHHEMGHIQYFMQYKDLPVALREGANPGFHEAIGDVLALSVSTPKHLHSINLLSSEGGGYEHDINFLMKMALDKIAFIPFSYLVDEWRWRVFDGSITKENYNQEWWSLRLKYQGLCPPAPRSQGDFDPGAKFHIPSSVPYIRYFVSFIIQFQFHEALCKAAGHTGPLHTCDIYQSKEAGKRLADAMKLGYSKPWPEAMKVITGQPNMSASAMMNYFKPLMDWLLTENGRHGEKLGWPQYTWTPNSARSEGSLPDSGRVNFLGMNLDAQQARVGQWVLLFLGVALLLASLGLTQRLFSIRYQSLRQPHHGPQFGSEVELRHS
Description: ACE from rabbit lung and hippuryl‐histidyl‐leucine (HHL) were sourced from Sigma Chemical Co. (St. Louis).
Briefly, 20 μL of inhibitory peptides at different concentrations and 20 μL of 5 mM HHL solution were preincubated at 37°C for 5 min in 90 μL of buffer A (50 mM HEPES, 300 mM NaCl, pH 8.3). Next, 20 μL of ACE solution (0.04 U/mL) was added to trigger the reaction. After incubation at 37°C for 1 hr, the reaction was terminated by adding 50 μL of 1 M HCl. Next, 10 μL of the mixture was separated through RP‐HPLC (e2679, Waters) using an XBridge C18 column (4.6 mm × 150 mm, 5 μm, Waters). […] Hippuric acid was monitored at 228 nm. Triplicate tests were performed for each sample. […] For comparative purposes, the IC50 value of captopril was obtained using this methodology.

| IC50 | SMILES |
| --- | --- |
| > 5000 µM | N[C@@H](CC(=O)O)C(=O)NCC(=O)NCC(=O)O [DGG] (H-Asp-Gly-Gly-OH) |
| 5.86 ± 0.73 µM | N=C(N)NCCC[C@H](NC(=O)[C@@H](N)Cc1c[nH]c2ccccc12)C(=O)N[C@@H](Cc1ccc(O)cc1)C(=O)O [WRY] (H-Trp-Arg-Tyr-OH) |
| 7.3 ± 2.11 µM | N[C@@H](Cc1c[nH]c2ccccc12)C(=O)N[C@@H](Cc1c[nH]c2ccccc12)C(=O)N[C@@H](Cc1c[nH]c2ccccc12)C(=O)O [WWW] (H-Trp-Trp-Trp-OH) |
| 21.8 ± 2.5 µM | N=C(N)NCCC[C@H](NC(=O)[C@@H](N)Cc1c[nH]c2ccccc12)C(=O)N[C@@H](Cc1ccccc1)C(=O)O [WRF] (H-Trp-Arg-Phe-OH) |
| > 5000 µM | NCC(=O)NCC(=O)NCC(=O)O [GGG] (H-Gly-Gly-Gly-OH) |
| 20.5 ± 4.05 µM | NCCCC[C@H](N)C(=O)N[C@@H](Cc1ccc(O)cc1)C(=O)N[C@@H](Cc1ccc(O)cc1)C(=O)O [KYY] (H-Lys-Tyr-Tyr-OH) |
| 11.8 ± 1.79 µM | NC(=O)CC[C@H](NC(=O)[C@@H](N)Cc1c[nH]c2ccccc12)C(=O)N[C@@H](Cc1c[nH]c2ccccc12)C(=O)O [WQW] (H-Trp-Gln-Trp-OH) |
